# In US5596016A, “1,2-disubstituted aromatic chelates” (Albion International, Inc., priority 1994, dated 1997):
# “Also recorded” adds a separate entry of the source.
# How the values were obtained:
# [1] = Iron excretion in urine after oral dosing, sample in ml (Table 3); assay type: in vivo, rats; details: one gram sample of 15% iron
# Method: (§1) Bioavailability: One gram samples of each of the above iron vanillin chelates and ferrous sulfate sales were administered orally to rats as a slurry consisting of one gram of sample contained in 4 ml of water. The samples were given via a syringe fitted with a balled needle and injected into the stomach of the animals. Each one gram sample of 15% iron would deliver 150 mg of Fe which is ten times the recommended daily allowance of iron for a human being of average size. Obviously, such a dosage is many times higher than required for the test animals considering that the rats weighed an average of about 125 grams each. One sample of two grams of chelate suspended as a slurry in 8 ml of water was found too be too much volume and overfilled the stomach of the rat resulting in the loss of some of the dosage.
# (§2) The animals were observed over a two day (48 hour) period and their urine and feces were collected. At the end of the 48 hour period the animals were sacrificed and blood samples were taken.
# (§3) There follows a comparison of the urine, feces and blood tests taken from the rats at 24 and 48 hours post dosage.
# [2] = Iron excretion after oral dosing, sample weighed in grams (Table 2, headed Urine; evidently feces); assay type: in vivo, rats; details: for Urine: Total Mg Fe (per Total Gm Sample): oral, one gram sample of 15% iron
# Method: as §1, §2, §3
# [3] = tested on: Rats; assay: Observation of rats over 48 hours after oral dosing; assay type: in vivo
# Method: as §1, §2
substance,measurement,setting,value
ferrous sulfate [FeSO4],Urine: Total Mg Fe (per Total Ml Sample),[1]; 24 hours,0.020 Mg Fe
same,Urine: Total Mg Fe (per Total Ml Sample),[1]; 48 hours,0.010 Mg Fe
same,Urine: Total Mg Fe (per Total Gm Sample),[2]; 24 hours,1.18 Mg Fe
same,Urine: Total Mg Fe (per Total Gm Sample),[2]; 48 hours,61.6 Mg Fe
same,excretion of iron in the feces,"[2]; after 48 hours, versus iron vanillate",much higher excretion of iron in the feces
same,appearance and behavior of rats,"[3]; 48 hour period, one gram sample of 15% iron, oral","appeared listless and produced little urine and feces; also recorded: listless, non-reactive, retired and demonstrated abnormal breathing behavior"
same,time without food or water consumption post dosage,"[3]; one gram sample of 15% iron, oral",approximately 26 hours
same,time to hematuria following dosage,[3]; one of the ferrous sulfate fed rats,≤ 2.5 h
